Laboratory results reported in US5103013A, “Dithioketene derivatives, pharmaceutical compositions containing the same and uses thereof” (Yuhan Corporation, Ltd., priority 1988, dated 1992).

Tests used:
[1] = Acute toxicity of test compounds (oral LD50); conditions: mouse, in vivo, male ICR mice, 0.2% CMC-Na suspension, dead mice counted for 14 days, read-out: LD50 of Test Compound (column head prints ED50)
Method: Each test compound was suspended in 0.2% CMC--Na solution in various concentrations to make test suspensions. The test suspensions were administered orally to male ICR mice (10 in each group) at various doses. The number of dead mice was counted for 14 days and the value of median lethal dose (LD50, g/kg) was calculated by the Hitchifield-Wilcoxon method.

[2] = test system: serum alanine aminotransferase (ALT) increase induced by CCl4; assay: Protective effect against acute hepatic damage induced by carbon tetrachloride (suppression of serum ALT increase); type: in vivo; conditions: Mus musculus; mice, oral 50 mg/kg in 0.2% CMC-Na, 6 h before oral CCl4 (50 ul/kg); serum ALT 24 h after CCl4; read-out: Inhibitory (%) (protective effect of test compound against increase of serum ALT activity induced by CCl4)
Method: Carbon tetrachloride (CCl4) is a well-known hepatotoxic agent, thus widely used to produce experimental animal models for screening the potential drugs acting upon hepatic diseases. In this experiment test compounds were administered to mice prior to treatment with CCl4. 24 Hours after the CCl4 treatment, the animals were sacrificed and serum alanine aminotransferase (ALT) levels were determined. The hepatoprotective effect of a test compound was evaluated by the suppressive action against the increase of serum ALT induced by CCl4.
The experimental animals were divided into the normal, the CCl4 treated and the test compound treated groups. Each group consisted of 8 mice with body weight of 20-25 grams. The test compounds were suspended in 0.2% sodium carboxymethylcellulose (CMC--Na) solution and administered orally at the dose of 50 mg/125 ml/kg body weight. Only the vehicle 0.2% CMC--Na solution, was administered to the normal and to the CCl4 treated group instead of the test compound suspension.
6 Hours after the drug administration, the CCl4 solution in olive oil was administered orally to the CCl4 treated-group and the test compound treated group at the dose of 50 ul/25 ml olive oil/kg body weight. The normal group was administered with olive oil only at the same dose. 24 Hours after the CCl4 administration, blood samples were collected from the orbital sinus of the animals and the sera were monitored using an automatic blood analyzer (Gilford, SBA 300). The hepatoprotective effect of the test compounds was expressed by the suppressive percentage against the increase of serum ALT level induced by CCl4 calculated by the following formula; [formula]

[3] = test system: serum ALT increase induced by CCl4; assay: Determination of 50% effective dose (ED50) against CCl4-induced serum ALT increase; type: in vivo; conditions: Mus musculus; mice, oral 50, 25, 12.5 or 6.25 mg/kg, 6 h before CCl4; serum ALT 24 h after CCl4; estimated from dose-response curves; read-out: ED50 (50% effective dose of test compound)
Method: The various doses of test compounds were administered to mice, followed by the treatment with CCl4 after 6 hours. 24 Hours after the CCl4 treatment, the serum ALT level of the animals were determined. The hepatoprotective effect of the test compounds and the doses were plotted to form doseresponse curves, from which the ED50 doses of the test compounds were estimated.
The experimental animals were divided into the normal, the CCl4 treated and the test compound treated groups. Each group consisted of 8 mice with body weight of 20-25 grams. The test compounds were suspended in 0.2% CMC--Na solution and administered orally at a dose of 50 mg, 25 mg, 12.5 mg or 6.25 mg/125 ml/kg body weight. Only the vehicle, 0.2% CMC--Na solution, was administered to the normal and to the CCl4 treated group instead of the test compound suspension. 6 Hours later, the CCl4 solution in olive oil was administered orally to the CCl4 treated and the test compound treated groups at the dose of 50 ul/25 ml oilve oil/kg body weight. The norm group was administered olive oil only at the same dose. 24 Hours after the CCl4 administration, blood samples were collected from the orbital sinuses of the animals and the sera were obtained by centrifugation. The serum ALT activities were monitored and the hepatoprotective effect of the test compounds were calculated by the same method as described in experiment 1. The percentages were plotted against the corresponding doses of the test compounds to make dose-response curves, from which the 50% effective dose of test compound was estimated.

| SMILES | LD50 at 336 h [1] [mg/kg] | inhibition in vivo at 50 mg/kg [2] [%] | ED50 [3] [mg/kg] |
| --- | --- | --- | --- |
| CC(C)OC(=O)C(C(N)=O)=C1SCS1 [Example 13, Isopropyl 2-(1,3-dithietan-2-ylidene)-2-carbamoylacetate] | < 5000 | 28 | > 50 |
| CC(C)OC(=O)C(C(=O)NCc1ccccc1)=C1SCS1 [Example 15, Isopropyl 2-(1,3-dithietan-2-ylidene)-2-(N-benzylcarbamoyl)acetate] |  | 97 | 10 |
| CC(C)OC(=O)C(C(=O)Nc1ccccc1)=C1SCS1 [Example 18, Isopropyl 2-(1,3-dithietan-2-ylidene)-2-(N-phenylcarbamoyl)acetate] |  | 100 | 7 |
| CC(C)OC(=O)C(C(=O)Nc1ccc(C(F)(F)F)cc1)=C1SCS1 [Example 19, Isopropyl 2-(1,3-dithietan-2-ylidene)-2-[N-(4-trifluoromethylphenyl)carbamoyl]acetate] |  | 100 | 6.25 |
| CC(C)OC(=O)C(C(=O)Nc1ccc(C(F)(F)F)cc1)=C1SCCS1 [Example 21, Isopropyl 2-(1,3-dithiolan-2-ylidene)-2-[N-(4-trifluoromethylphenyl)carbamoyl]acetate] |  | 98 | < 50 |
| CC(C)OC(=O)C(C(=O)Nc1nccs1)=C1SCS1 [Example 22, Isopropyl 2-(1,3-dithietan-2-ylidene)-2-[N-(2-thiazolyl)carbamoyl]acetate] | > 5000 | 100 | < 6.25 |
| Cc1csc(NC(=O)C(C(=O)OC(C)C)=C2SCS2)n1 [Example 24, Isopropyl 2-(1,3-dithietan-2-ylidene)-2-[N-(4-methyl-2-thiazolyl)carbamoyl]acetate] | > 5000 | 100 | < 6.25 |
| Cc1csc(NC(=O)C(C(=O)OC(C)C)=C2SCCS2)n1 [Example 26, Isopropyl 2-(1,3-dithiolan-2-ylidene)-2-[N-(4-methyl-2-thiazolyl)carbamoyl]acetate] |  | 98 | < 50 |
| CC(C)OC(=O)C(C(=O)Nc1nc(-c2ccccc2)cs1)=C1SCS1 [Example 27, Isopropyl 2-(1,3-dithietan-2-ylidene)-2-[N-(4-phenyl-2-thiazolyl)carbamoyl]acetate] |  | 11 | > 50 |
| CC(C)OC(=O)C(C(=O)Nc1nncs1)=C1SCS1 [Example 28, Isopropyl 2-(1,3-dithietan-2-ylidene)-2-[N-(1,3,4-thiadiazol-2-yl)carbamoyl]acetate] | > 5000 | 100 | < 6.25 |
| CC(C)OC(=O)C(C(=O)Nc1ccccn1)=C1SCS1 [Example 29, Isopropyl 2-(1,3-dithietan-2-ylidene)-2-[N-(2-pyridyl)carbamoyl]acetate] | > 5000 | 100 | 10 |
| CC(C)OC(=O)C(C(=O)Nc1ccccn1)=C1SCCS1 [Example 32, Isopropyl 2-(1,3-dithiolan-2-ylidene)-2-[N-(2-pyridyl)carbamoyl]acetate] |  | 85 | < 50 |
